Reference: PubChem BioAssay AID1963854 (Molecular Pharmacology Branch, DTP, NCI, 2024)

Tested on: 186277-243-T-J2-PDC complex spheroid viability
Experiment: Anticancer human tumor 186277-243-T-J2-PDC patient-derived colon adenocarcinoma cell line growth inhibition [POLQ]
Conditions: for IC50: curve of first compound; for viability, T/C: stronger effect = lower value
Procedure, shortened: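 Patient-derived tumour cells were co-cultured with HUVEC and mesenchymal stem cells as multicellular spheroids at 37 °C. They were treated with POLQ inhibitors (novobiocin, ART-558, RP6685) alone or combined with other agents. Top concentrations were at or near clinical Cmax (otherwise 10 microM; SN-38 at 1 microM), decreasing in half-log steps.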

[1] = second compound 0.0316 µM, first compound 0.0316 µM
[2] = second compound 0.0316 µM, first compound 0.1 µM
[3] = second compound 0.0316 µM, first compound 0.316 µM
[4] = second compound 0.0316 µM, first compound 1 µM
[5] = second compound 0.0316 µM, first compound 3.16 µM
[6] = second compound 0.0316 µM, first compound 10 µM
[7] = second compound 0.1 µM, first compound 0.0316 µM
[8] = second compound 0.1 µM, first compound 0.1 µM
[9] = second compound 0.1 µM, first compound 0.316 µM
[10] = second compound 0.1 µM, first compound 1 µM
[11] = second compound 0.1 µM, first compound 3.16 µM
[12] = second compound 0.1 µM, first compound 10 µM
[13] = second compound 0.316 µM, first compound 0.0316 µM
[14] = second compound 0.316 µM, first compound 0.1 µM
[15] = second compound 0.316 µM, first compound 0.316 µM
[16] = second compound 0.316 µM, first compound 1 µM
[17] = second compound 0.316 µM, first compound 3.16 µM
[18] = second compound 0.316 µM, first compound 10 µM
[19] = second compound 1 µM, first compound 0.0316 µM
[20] = second compound 1 µM, first compound 0.1 µM
[21] = second compound 1 µM, first compound 0.316 µM
[22] = second compound 1 µM, first compound 1 µM
[23] = second compound 1 µM, first compound 3.16 µM
[24] = second compound 1 µM, first compound 10 µM
[25] = second compound 3.16 µM, first compound 0.0316 µM
[26] = second compound 3.16 µM, first compound 0.1 µM
[27] = second compound 3.16 µM, first compound 0.316 µM
[28] = second compound 3.16 µM, first compound 1 µM
[29] = second compound 3.16 µM, first compound 3.16 µM
[30] = second compound 3.16 µM, first compound 10 µM
[31] = second compound 10 µM, first compound 0.0316 µM
[32] = second compound 10 µM, first compound 0.1 µM
[33] = second compound 10 µM, first compound 0.316 µM
[34] = second compound 10 µM, first compound 1 µM
[35] = second compound 10 µM, first compound 3.16 µM
[36] = second compound 10 µM, first compound 10 µM
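Further: spheroids exposed to compounds for seven days.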
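Wherever viability, T/C is given: 100% = DMSO vehicle control viability.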

CC1COCCN1c1cc(-c2ccnn2C)c2ccnc(-c3ccn[nH]3)c2n1 (stereo unspecified) + COC1C(OC(N)=O)C(O)C(Oc2ccc3c(O)c(NC(=O)c4ccc(O)c(CC=C(C)C)c4)c(=O)oc3c2C)OC1(C)C
IC50 (second compound 0.0316 µM): 42.6 nM
IC50 (second compound 0.1 µM): 45.8 nM
IC50 (second compound 0.316 µM): 45.6 nM
IC50 (second compound 1 µM): 47.4 nM
IC50 (second compound 3.16 µM): 42.8 nM
IC50 (second compound 10 µM): 51.2 nM
viability, T/C [1]: 63.9%
viability, T/C [2]: 10.3%
viability, T/C [3]: 4.76%
viability, T/C [4]: 4.28%
viability, T/C [5]: 3.3%
viability, T/C [6]: 3.81%
viability, T/C [7]: 68.6%
viability, T/C [8]: 10.9%
viability, T/C [9]: 4.88%
viability, T/C [10]: 3.51%
viability, T/C [11]: 2.82%
viability, T/C [12]: 3.8%
viability, T/C [13]: 67.6%
viability, T/C [14]: 12.2%
viability, T/C [15]: 4.58%
viability, T/C [16]: 3.36%
viability, T/C [17]: 2.79%
viability, T/C [18]: 3.64%
viability, T/C [19]: 71%
viability, T/C [20]: 11.4%
viability, T/C [21]: 5.31%
viability, T/C [22]: 3.57%
viability, T/C [23]: 3.29%
viability, T/C [24]: 4.22%
viability, T/C [25]: 63.9%
viability, T/C [26]: 11.1%
viability, T/C [27]: 4.98%
viability, T/C [28]: 3.47%
viability, T/C [29]: 4.1%
viability, T/C [30]: 3.47%
viability, T/C [31]: 77.8%
viability, T/C [32]: 11.6%
viability, T/C [33]: 5.41%
viability, T/C [34]: 3.59%
viability, T/C [35]: 4.37%
viability, T/C [36]: 3.76%

C#Cc1c(F)ccc2cc(O)cc(-c3ncc4c(N5CC6CCC(C5)N6)nc(OCC56CCCN5CC(F)C6)nc4c3F)c12 (stereo unspecified) + COC1C(OC(N)=O)C(O)C(Oc2ccc3c(O)c(NC(=O)c4ccc(O)c(CC=C(C)C)c4)c(=O)oc3c2C)OC1(C)C
IC50 (second compound 0.0316 µM): 88.1 nM
IC50 (second compound 0.1 µM): 91.9 nM
IC50 (second compound 0.316 µM): 98 nM
IC50 (second compound 1 µM): 95.5 nM
IC50 (second compound 3.16 µM): 88.2 nM
IC50 (second compound 10 µM): 74.6 nM
viability, T/C [1]: 78.8%
viability, T/C [2]: 47.2%
viability, T/C [3]: 17.3%
viability, T/C [4]: 13.3%
viability, T/C [5]: 5.89%
viability, T/C [6]: 3.8%
viability, T/C [7]: 73.6%
viability, T/C [8]: 48.1%
viability, T/C [9]: 24.4%
viability, T/C [10]: 10.3%
viability, T/C [11]: 8.42%
viability, T/C [12]: 3.79%
viability, T/C [13]: 87.3%
viability, T/C [14]: 49.5%
viability, T/C [15]: 21.1%
viability, T/C [16]: 9.93%
viability, T/C [17]: 5.5%
viability, T/C [18]: 3.94%
viability, T/C [19]: 92.4%
viability, T/C [20]: 48.4%
viability, T/C [21]: 15.6%
viability, T/C [22]: 8.5%
viability, T/C [23]: 5.97%
viability, T/C [24]: 3.63%
viability, T/C [25]: 73.6%
viability, T/C [26]: 47.1%
viability, T/C [27]: 19.5%
viability, T/C [28]: 7.53%
viability, T/C [29]: 5.69%
viability, T/C [30]: 3.42%
viability, T/C [31]: 74.3%
viability, T/C [32]: 42%
viability, T/C [33]: 18%
viability, T/C [34]: 9.65%
viability, T/C [35]: 8.31%
viability, T/C [36]: 3.67%

CNCc1ccc(-c2[nH]c3cc(F)cc4c3c2CCNC4=O)cc1 + Nc1ccc(C#CCN(C(=O)Cc2ncc(C(F)(F)F)cc2C(F)(F)F)c2ccc(F)cc2)nn1
IC50 (second compound 0.0316 µM): > 10000 nM
IC50 (second compound 0.1 µM): > 10000 nM
IC50 (second compound 0.316 µM): > 10000 nM
IC50 (second compound 1 µM): > 10000 nM
IC50 (second compound 3.16 µM): > 10000 nM
IC50 (second compound 10 µM): > 10000 nM
viability, T/C [1]: 121%
viability, T/C [2]: 104%
viability, T/C [3]: 129%
viability, T/C [4]: 85.5%
viability, T/C [5]: 112%
viability, T/C [6]: 126%
viability, T/C [7]: 101%
viability, T/C [8]: 96.7%
viability, T/C [9]: 108%
viability, T/C [10]: 95.5%
viability, T/C [11]: 125%
viability, T/C [12]: 121%
viability, T/C [13]: 100%
viability, T/C [14]: 109%
viability, T/C [15]: 103%
viability, T/C [16]: 102%
viability, T/C [17]: 105%
viability, T/C [18]: 116%
viability, T/C [19]: 92.4%
viability, T/C [20]: 118%
viability, T/C [21]: 95%
viability, T/C [22]: 111%
viability, T/C [23]: 98.7%
viability, T/C [24]: 132%
viability, T/C [25]: 96.9%
viability, T/C [26]: 118%
viability, T/C [27]: 100%
viability, T/C [28]: 99.6%
viability, T/C [29]: 111%
viability, T/C [30]: 110%
viability, T/C [31]: 108%
viability, T/C [32]: 106%
viability, T/C [33]: 106%
viability, T/C [34]: 103%
viability, T/C [35]: 88.2%
viability, T/C [36]: 116%
